In BindingDB's records for patent US10174013 (Selvita S.A., 2019):
pIC50, pKd: −log10 of the molar value.

Tests used:
[1] = molecular target: Receptor-type tyrosine-protein kinase FLT3 [D835H] (Homo sapiens, UniProt P36888, D835H); test: FLT3 Kinase assay
Method: (§1) Selected compounds were also tested for their binding properties against FLT3 kinase mutants using suitable in vitro assays (performed according to standard assays at DiscoveRx Corporation). The compounds show strong binding to the main oncogenic mutants of the FLT3 kinase.

[2] = molecular target: Receptor-type tyrosine-protein kinase FLT3 (Homo sapiens, UniProt P36888); test: FLT3 Kinase assay
Method: as §1

[3] = molecular target: Receptor-type tyrosine-protein kinase FLT3 [D835Y] (Homo sapiens, UniProt P36888, D835Y); test: FLT3 Kinase assay
Method: as §1

[4] = molecular target: Potassium voltage-gated channel subfamily H member 2 (Homo sapiens, UniProt Q12809); test: Determination of a Possible Activity on hERG
Potassium voltage-gated channel subfamily H member 2, sequence (Q12809 whole entry): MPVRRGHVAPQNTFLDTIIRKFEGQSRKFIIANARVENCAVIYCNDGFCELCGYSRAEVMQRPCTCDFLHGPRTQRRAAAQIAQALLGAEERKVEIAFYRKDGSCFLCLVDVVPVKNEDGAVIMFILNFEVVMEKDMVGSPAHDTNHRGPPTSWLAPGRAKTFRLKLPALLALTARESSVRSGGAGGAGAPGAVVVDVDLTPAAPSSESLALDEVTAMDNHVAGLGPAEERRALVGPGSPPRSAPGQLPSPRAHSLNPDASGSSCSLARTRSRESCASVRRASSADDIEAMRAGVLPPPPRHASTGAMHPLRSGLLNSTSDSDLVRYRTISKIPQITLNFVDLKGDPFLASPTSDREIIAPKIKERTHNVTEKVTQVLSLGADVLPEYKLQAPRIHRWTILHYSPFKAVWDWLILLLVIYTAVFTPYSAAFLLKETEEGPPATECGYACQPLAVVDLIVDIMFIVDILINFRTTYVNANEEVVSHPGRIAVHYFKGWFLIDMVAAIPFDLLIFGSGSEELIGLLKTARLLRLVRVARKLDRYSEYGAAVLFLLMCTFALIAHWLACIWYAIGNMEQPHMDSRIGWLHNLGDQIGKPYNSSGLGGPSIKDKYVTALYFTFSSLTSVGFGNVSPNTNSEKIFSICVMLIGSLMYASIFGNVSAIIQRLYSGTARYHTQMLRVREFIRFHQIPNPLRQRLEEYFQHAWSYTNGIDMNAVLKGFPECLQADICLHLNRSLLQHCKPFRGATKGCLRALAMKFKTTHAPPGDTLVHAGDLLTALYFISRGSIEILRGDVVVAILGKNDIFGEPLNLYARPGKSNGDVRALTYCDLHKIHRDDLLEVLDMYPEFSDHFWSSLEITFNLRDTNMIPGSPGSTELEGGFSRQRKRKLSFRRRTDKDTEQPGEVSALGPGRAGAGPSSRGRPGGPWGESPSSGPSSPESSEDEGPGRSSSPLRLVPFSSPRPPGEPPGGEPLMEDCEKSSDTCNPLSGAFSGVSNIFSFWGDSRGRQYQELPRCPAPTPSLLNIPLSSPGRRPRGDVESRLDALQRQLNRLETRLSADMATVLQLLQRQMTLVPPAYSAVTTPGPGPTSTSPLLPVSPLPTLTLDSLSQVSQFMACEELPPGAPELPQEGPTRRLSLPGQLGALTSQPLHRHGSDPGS
Method: In order to establish whether the compounds of the present invention act on hERG, the following experiment was carried out.The in vitro effects of the compounds indicated in Table 5 on the hERG potassium channel current (a surrogate for Iκr, the rapidly activating, delayed rectifier cardiac potassium current) expressed in mammalian cells were evaluated at room temperature using the QPatch HT (Sophion Bioscience A/S, Denmark), an automatic parallel patch clamp system. Each compound indicated in Table 5 was evaluated at 0.1, 1, 3, 10 and 30 μM with each concentration tested in a minimum of two cells (n≥2). The duration of exposure to each compound concentration was 3 minutes.

pKd [1]	pKd [2]	pKd [3]	Structure (SMILES)	pIC50 [4]
7.55	6.89	7.82	CC(C)n1c(N2CCNCC2)nc2c([N+](=O)[O-])c(Br)c(Br)cc21 [US10174013, Example 2A]	–
–	–	–	CCn1c(N2CCNCC2)nc2c([N+](=O)[O-])c(Br)c(Br)cc21 [US10174013, Example 1A]	4.69
